Results reported in ChEMBL document CHEMBL5126522, “In vitro and in vivo evaluation of 211At-labeled fibroblast activation protein inhibitor for glioma treatment” (Bioorg Med Chem, 2022).

How the values were obtained:
[1] = Drug uptake in tumor of BALB/c nude mouse xenografted with human U-87 MG cells at 0.3 MBq, it measured after 0.5 hrs by gamma-counting analysis; assay type: ADME, tissue-based, Neoplasm; conditions: other
[2] = Inhibition of colony formation in human U-87 MG cells assessed as survival fraction at 4.6 kBq incubated in radioactive medium for 12 hrs followed by incubation in non-radioactive medium for 14 days by crystal violet staining based analysis; assay type: functional, U-87MG ATCC; conditions: time 852 hrs
[3] = Drug uptake in tumor of BALB/c nude mouse xenografted with human U-87 MG cells at 0.3 MBq, it measured after 6 hrs by gamma-counting analysis; assay type: ADME, Neoplasm; conditions: other
[4] = Ratio of drug level in tumor to kidney in BALB/c nude mouse xenografted with human U-87 MG cells at 0.3 MBq, it measured after 2 hrs by gamma-counting analysis; assay type: ADME, tissue-based; conditions: other
[5] = Anti-tumor activity against human U-87 MG cells xenografted in BALB/c nude mouse assessed as reduction in tumor volume at 0.37 MBq, it measured on day 15 by electronic caliper analysis; assay type: functional, U-87MG ATCC
[6] = Toxicity in BALB/c nude mouse xenografted with human U-87 MG cells assessed as thyroid morphological changes at 0.55 MBq, it measured after 2 to 12 days by Hematoxylin-Eosin staining based analysis; conditions: other, time 2-12 day
[7] = Drug uptake in kidney of BALB/c nude mouse xenografted with human U-87 MG cells at 0.3 MBq, it measured after 0.5 hrs by gamma-counting analysis; assay type: ADME, tissue-based; conditions: other
[8] = Ratio of drug level in tumor to liver in BALB/c nude mouse xenografted with human U-87 MG cells at 0.3 MBq, it measured after 2 hrs by gamma-counting analysis; assay type: ADME, tissue-based; conditions: other
[9] = Drug uptake in FAP-positive human U-87 MG cells assessed as binding rate measured after 10 mins; assay type: ADME, cell-based; conditions: u-87mg atcc
[10] = Cytotoxicity against human U-87 MG cells assessed as cell viability at 92 kBq incubated in radioactive medium for 12 hrs followed by incubation in non-radioactive medium for 24 hrs by CCK8 assay; assay type: functional, U-87MG ATCC; conditions: time 36 hrs
[11] = Drug uptake in FAP-positive human U-87 MG cells assessed as binding rate measured for 4 hrs; assay type: ADME, cell-based; conditions: u-87mg atcc
[12] = Drug uptake in tumor of BALB/c nude mouse xenografted with human U-87 MG cells at 0.3 MBq, iv measured after 0.5 hrs by gamma-counting analysis; assay type: ADME, organism-based, Neoplasm; conditions: in vivo
[13] = Drug uptake in tumor of BALB/c nude mouse xenografted with human U-87 MG cells at 0.3 MBq, iv measured after 6 hrs by gamma-counting analysis; assay type: ADME, organism-based, Neoplasm; conditions: in vivo
[14] = Drug uptake in tumor of BALB/c nude mouse xenografted with human U-87 MG cells at 0.3 MBq, it measured after 2 hrs by gamma-counting analysis; assay type: ADME, tissue-based, Neoplasm; conditions: other
[15] = Drug uptake in kidney of BALB/c nude mouse xenografted with human U-87 MG cells at 0.3 MBq, iv measured after 0.5 hrs by gamma-counting analysis; assay type: ADME, organism-based; conditions: in vivo
[16] = Antitumor activity against human U-87 MG cells xenografted in BALB/c nude mouse assessed as proportion of TUNEL-positive cells in tumor at 0.55 MBq, it measured after 2 days by immunohistochemical analysis (reference value: 3.54 +/-2.71%); assay type: functional, U-87MG ATCC; conditions: time 2 day
[17] = Drug uptake in tumor of BALB/c nude mouse xenografted with human U-87 MG cells at 0.3 MBq, iv measured after 2 hrs by gamma-counting analysis; assay type: ADME, organism-based, Neoplasm; conditions: in vivo
[18] = Drug uptake in FAP-positive human U-87 MG cells assessed as binding rate measured after 60 mins; assay type: ADME, cell-based; conditions: u-87mg atcc, 1 h
[19] = Drug uptake in FAP-positive human U-87 MG cells assessed as binding rate pretreated with excess standard products measured after 60 mins; assay type: ADME, cell-based; conditions: u-87mg atcc, 1 h
[20] = Toxicity in BALB/c nude mouse xenografted with human U-87 MG cells assessed as change in body weight at 0.18 to 0.55 MBq, it; conditions: other, dose 0.18-0.55 MBq
[21] = Stability of the compound in serum (unknown origin) measured after 24 hrs by iTLC analysis; assay type: ADME, cell-free; conditions: read-out: Stability
[22] = Drug uptake in thyroid of BALB/c nude mouse xenografted with human U-87 MG cells at 0.3 MBq, iv by gamma-counting analysis; assay type: ADME, organism-based, Thyroid gland; conditions: in vivo
[23] = Drug uptake in thyroid of BALB/c nude mouse xenografted with human U-87 MG cells at 0.3 MBq, it by gamma-counting analysis; assay type: ADME, tissue-based, Thyroid gland; conditions: other
[24] = Anti-tumor activity against human U-87 MG cells xenografted in BALB/c nude mouse assessed as reduction in tumor volume at 0.55 MBq, it measured on day 15 by electronic caliper analysis; assay type: functional, U-87MG ATCC; conditions: time 15 day
[25] = Antitumor activity against human U-87 MG cells xenografted in BALB/c nude mouse assessed as Ki67 expression in tumor at 0.55 MBq, it measured after 2 days by immunohistochemical analysis (reference value: 49.8 +/-7.67%); assay type: functional, U-87MG ATCC; conditions: time 2 day
[26] = Ratio of drug level in tumor to blood in BALB/c nude mouse xenografted with human U-87 MG cells at 0.3 MBq, it measured after 2 hrs by gamma-counting analysis; assay type: ADME, tissue-based; conditions: other
[27] = Inhibition of colony formation in human U-87 MG cells assessed as survival fraction at 9.2 kBq incubated in radioactive medium for 12 hrs followed by incubation in non-radioactive medium for 14 days by crystal violet staining based analysis; assay type: functional, U-87MG ATCC; conditions: time 852 hrs
[28] = Anti-tumor activity against human U-87 MG cells xenografted in BALB/c nude mouse assessed as median survival time at 0.55 MBq, it (reference value: 16.5 days); assay type: functional, U-87MG ATCC
[29] = Toxicity in BALB/c nude mouse xenografted with human U-87 MG cells assessed as liver morphological changes at 0.55 MBq, it measured after 2 to 12 days by Hematoxylin-Eosin staining based analysis; assay type: tissue-based; conditions: other, time 2-12 day
[30] = Ratio of drug level in tumor to muscle in BALB/c nude mouse xenografted with human U-87 MG cells at 0.3 MBq, it measured after 2 hrs by gamma-counting analysis; assay type: ADME, tissue-based; conditions: other
[31] = Drug uptake in liver of BALB/c nude mouse xenografted with human U-87 MG cells at 0.3 MBq, it measured after 0.5 hrs by gamma-counting analysis; assay type: ADME, tissue-based; conditions: other
[32] = Induction of cell cycle arrest in human U-87 MG cells assessed as proportion of cells at G2/M phase at 23 kBq incubated in radioactive medium for 12 hrs followed by incubation in non-radioactive medium for 24 hrs by PI staining based flow cytometry (reference value: 15.7 +/-3.61%); assay type: functional, U-87MG ATCC; conditions: time 36 hrs
[33] = Drug uptake in stomach of BALB/c nude mouse xenografted with human U-87 MG cells at 0.3 MBq, iv by gamma-counting analysis; assay type: ADME, organism-based; conditions: in vivo
[34] = Anti-tumor activity against human U-87 MG cells xenografted in BALB/c nude mouse assessed as median survival time at 0.37 MBq, it (reference value: 16.5 days); assay type: functional, U-87MG ATCC
[35] = Toxicity in BALB/c nude mouse xenografted with human U-87 MG cells assessed as stomach morphological changes at 0.55 MBq, it measured after 2 to 12 days by Hematoxylin-Eosin staining based analysis; assay type: tissue-based; conditions: other, time 2-12 day
[36] = Drug uptake in FAP-negative human MCF7 cells assessed as binding rate measured after 10 to 240 mins; assay type: ADME, cell-based; conditions: time 10-240 min
[37] = Inhibition of colony formation in human U-87 MG cells assessed as survival fraction at 18.5 kBq incubated in radioactive medium for 12 hrs followed by incubation in non-radioactive medium for 14 days by crystal violet staining based analysis; assay type: functional, U-87MG ATCC
[38] = Hepatotoxicity BALB/c nude mouse xenografted with human U-87 MG cells assessed as change in serum ALT level at 0.55 MBq, it measured after 2 to 12 days; assay type: toxicity; conditions: other, time 2-12 day
[39] = Induction of cell cycle arrest in human U-87 MG cells assessed as proportion of cells at G0/G1 phase at 23 kBq incubated in radioactive medium for 12 hrs followed by incubation in non-radioactive medium for 24 hrs by PI staining based flow cytometry (reference value: 69.9 +/-3.76%); assay type: functional, U-87MG ATCC; conditions: time 36 hrs
[40] = Stability of the compound in saline measured after 24 hrs by iTLC analysis; assay type: physicochemical; conditions: read-out: Stability
[41] = Cytotoxicity against human U-87 MG cells assessed as cell viability at 12 kBq incubated in radioactive medium for 12 hrs followed by incubation in non-radioactive medium for 24 hrs by CCK8 assay; assay type: functional, U-87MG ATCC; conditions: time 36 hrs
[42] = Drug uptake in liver of BALB/c nude mouse xenografted with human U-87 MG cells at 0.3 MBq, iv measured after 0.5 hrs by gamma-counting analysis; assay type: ADME, organism-based; conditions: in vivo
[43] = Drug uptake in stomach of BALB/c nude mouse xenografted with human U-87 MG cells at 0.3 MBq, it by gamma-counting analysis; assay type: ADME; conditions: other
[44] = Toxicity in BALB/c nude mouse xenografted with human U-87 MG cells assessed as kidney morphological changes at 0.55 MBq, it measured after 2 to 12 days by Hematoxylin-Eosin staining based analysis; assay type: tissue-based; conditions: other, time 2-12 day
[45] = Renal toxicity BALB/c nude mouse xenografted with human U-87 MG cells assessed as change in BUN level at 0.55 MBq, it measured after 2 to 12 days; conditions: other, time 2-12 day
[46] = Anti-tumor activity against human U-87 MG cells xenografted in BALB/c nude mouse assessed as median survival time at 0.18 MBq, it (reference value: 16.5 days); assay type: functional, U-87MG ATCC
[47] = Anti-tumor activity against human U-87 MG cells xenografted in BALB/c nude mouse assessed as reduction in tumor volume at 0.18 MBq, it measured on day 15 by electronic caliper analysis; assay type: functional, U-87MG ATCC
[48] = Antitumor activity against human U-87 MG cells xenografted in BALB/c nude mouse assessed as proportion of TUNEL-positive cells in tumor at 0.55 MBq, it measured after 12 days by immunohistochemical analysis (reference value: 3.31 +/-1.13%); assay type: functional, U-87MG ATCC; conditions: time 12 day

`N#C[C@@H]1CC(F)(F)CN1C(=O)CNC(=O)c1ccnc2ccc(OCCCN3CCN(C(=O)c4ccc([211At])cc4)CC3)cc12` showed a Drug uptake [1] of 132.5 % ID/g, an Activity [2] of 28.1% and a Drug uptake [3] of 11.47 % ID/g. The Ratio [4] was 6.39, the “inhibition (INH)” value [5] was 70% and the Activity [6] was “Non-Toxic”. The Drug uptake [7] was “Active”, the Ratio [8] was 11.13 and the Drug uptake [9] was 14.4%. The Activity [10] was 42.1%, the Drug uptake [11] was “Active” and the Drug uptake [12] was 4.04 % ID/g. The Drug uptake [13] was 1.86 % ID/g, the Drug uptake [14] was 19.24 % ID/g and the Drug uptake [15] was “Active”. For the same compound, the Activity [16] was 28.7%, the Drug uptake [17] was 3.12 % ID/g and the Drug uptake [18] was 24.9%. For the same compound, the Drug uptake [19] was 9.3%, the Activity [20] was “Non-Toxic” and the remaining at 24 h [21] was 85.6%. For the same compound, the Drug uptake [22] was “Active”, the Drug uptake [23] was “Active” and the “inhibition (INH)” value [24] was 76%. It also gave an Activity [25] of 17.9%, a Ratio [26] of 14.17 and an Activity [27] of 8.1%. For the same compound, the Survival [28] was 33 days, the Activity [29] was “Non-Toxic” and the Ratio [30] was 45.75. For the same compound, the Drug uptake [31] was “Active”, the Activity [32] was 62.7% and the Drug uptake [33] was “Active”. The Survival [34] was 30 days, the Activity [35] was “Non-Toxic” and the Drug uptake [36] was 4.7%. For the same compound, the Activity [37] was 1.97%, the Activity [38] was “Non-Toxic” and the Activity [39] was 21.9%. For the same compound, the remaining at 24 h [40] was 94.7%, the Activity [41] was 61.9% and the Drug uptake [42] was “Active”. The Drug uptake [43] was “Active”, the Activity [44] was “Non-Toxic” and the Activity [45] was “Non-Toxic”. For the same compound, the Survival [46] was 24 days, the “inhibition (INH)” value [47] was 55% and the Activity [48] was 28.5%.
